Source: US20220347309A1, “PYRROLOBENZODIAZEPINE RESISTANCE” (ADC THERAPEUTICS SA, priority 2018, published 2022)
Like-named read-outs stand apart in the source and are kept apart here.

Columns and labels:
Karpas-299 PBDr cells = test: Drug transporter inhibitor combination growth inhibition (MTS); type: cell-based, human; details: for re-sensitisation to ADCT-301 treatment: MK-571 (5 μM) or FTC (10 μM) for 24 hours before ADC
Protocol: (§1) The in vitro cytotoxicity assay (MTS) was carried out as previously described.
(§2) Cells were seeded at 10,000 cells per well in a flat bottom 96-well plate, and NCI-N87 cell were incubated overnight to allow for cell attachment.
(§3) For ADC growth inhibition assays, cells were then incubated with serial dilutions of ADCT-301 or ADCT-502 in triplicate.
(§4) Growth inhibition was measured after 96 hours in Karpas-299 cells and 144 hours in NCI-N87 cells using the CellTiter 96 AQueous One MTS Solution (Promega) and absorbance measured on a Multiskan Ascent plate reader (ThermoFisher) at 492 nm.
(§5) Growth inhibition was calculated as a percentage of absorbance compared to an untreated control, and IC50 values were calculated using the sigmoidal, 4PL, X is log(concentration) equation in GraphPad Prism. […]

Karpas-299 ADCr cells = test: as above; type: cell-based, human; details: for re-sensitisation to ADCT-301 treatment: MK-571 (5 μM) or FTC (10 μM) for 24 hours before ADC
Protocol: as §1, §2, §3, §4, §5

NCI-N87 PBDr cells = test: as above; type: cell-based, human; details: for response to ADCT-502: MK-571 (5 μM) or FTC (10 μM) for 24 hours before ADC
Protocol: as §2, §3, §4
(§6) Growth inhibition was calculated as a percentage of absorbance compared to an untreated control, and IC50 values were calculated using the sigmoidal, 4PL, X is log(concentration) equation in GraphPad Prism.
(§7) For drug transporter inhibitor combination cytotox, the resistant cell lines were incubated overnight with either 5 μM MK-571 (ABCC2 inhibitor), 10 μM FTC (ABCG2 inhibitor), 5 μM Reversin-121 ([…]) overnight before carrying out the ADC or PBD growth inhibition assay as previously described.

NCI-N87 ADCr cells = test: as above; type: cell-based, human; details: for response to ADCT-502: MK-571 (5 μM) or FTC (10 μM) for 24 hours before ADC
Protocol: as §2, §3, §4, §6, §7

[1] = system: NCI-N87 ADCr cells (ADCT-502 acquired resistant); test: MTS in vitro cytotoxicity, 144 h continuous exposure; type: cell-based, human; details: for cross-resistance (MTS growth inhibition compared to the parental cell line): NCI-N87 ADCr vs parental
Protocol: (§13) To generate a resistant population to either ADCT-502 or SG3199, human gastric cancer NCI-N87 cells (expressing HER2) were incubated with an approximate IC50 dose of the drug for 144 hours. The cells were then washed and returned to fresh medium until normal cell growth was recovered. This process was repeated until a measurable and stable loss in cytotoxic efficacy was established using the MTS assay.
(§14) To measure the in vitro cytotoxicity with the MTS assay, cells were incubated with a 10-fold dilution range of ADCT-502 or SG3199, and incubated with continuous exposure for 144 hours (at least three cell doubling times under normal cell culture conditions). After incubation the CellTiter 960 AQueous One Solution Cell Proliferation Assay (MTS) was used to measure growth inhibition, by adding 20 μl reagent to the cells and incubating for 3-4 hours, then reading the absorbance at 492 nm. Mean % growth of the ADC or PBD treated cells was calculated relative to an untreated control.
(§15) To measure the cross-resistance of the NCI-N87 ADCR cells to the SG3199 PBD warhead, and the PBDR cells to ADCT-502, the in vitro cytotoxicity assay was carried out as described above, treating the cells with the opposite drug molecule to the one with which they were generated.

[2] = system: NCI-N87 PBDr cells (SG3199 acquired resistant); test: as above; type: cell-based, human; details: for cross-resistance (MTS growth inhibition compared to the parental cell line): NCI-N87 PBDr vs parental
Protocol: as §13, §14, §15

[3] = system: Karpas ADCr cells (ADCT-301 acquired resistant Karpas-299); test: MTS in vitro cytotoxicity, 96 h continuous exposure
Protocol: (§8) To generate a resistant population to either ADCT-301 or SG3199, human anaplastic large cell lymphoma Karpas-299 cells (expressing CD25) were incubated with an approximate IC50 dose of the drug for 96 hours. The cells were then washed and returned to fresh medium until normal cell growth was recovered. This process was repeated until a measurable and stable loss in cytotoxic efficacy was established using the MTS assay.
(§9) To measure the in vitro cytotoxicity with the MTS assay, cells were incubated with a 10-fold dilution range of ADCT-301 or SG3199, and incubated with continuous exposure for 96 hours (at least three cell doubling times under normal cell culture conditions). After incubation the […] AQueous One Solution Cell Proliferation Assay (MTS) was used to measure growth inhibition, by adding 20 μl reagent to the cells and incubating for 3-4 hours, then reading the absorbance at 492 nm. Mean % growth of the ADC or PBD treated cells was calculated relative to an untreated control.
(§10) To measure the cross-resistance of the Karpas ADCR cells to the SG3199 PBD warhead, and the PBDR cells to ADCT-301, the in vitro cytotoxicity assay was carried out as described above, treating the cells with the opposite drug molecule to the one with which they were generated.
(§11) To measure the cross-resistance of the Karpas ADCR and PBDR cells to the PBD dimer warhead SG2000, the in vitro cytotoxicity (MTS) assay was carried out as previously described in Example 2.

[4] = system: Karpas PBDr cells (SG3199 acquired resistant Karpas-299); test: as above
Protocol: as §8, §9, §10, §11

Karpas-299 wt cells = test: as above; type: cell-based; details: Homo sapiens, KARPAS-299, read-out: IC50 nM
Protocol: To measure the in vitro cytotoxicity with the MTS assay, cells were incubated with a 10-fold dilution range of ADCT-301 or SG3199, and incubated with continuous exposure for 96 hours (at least three cell doubling times under normal cell culture conditions). After incubation the CellTiter 960 AQueous One Solution Cell Proliferation Assay (MTS) was used to measure growth inhibition, by adding 20 μl reagent to the cells and incubating for 3-4 hours, then reading the absorbance at 492 nm. Mean % growth of the ADC or PBD treated cells was calculated relative to an untreated control.

NCI-N87 wt cells = test: MTS in vitro cytotoxicity, 144 h continuous exposure; type: cell-based, human; details: Homo sapiens, NCI-N87, 144 h, read-out: IC50 pM
Protocol: as §13, §14, §15

[5] = molecular target: T1, CD25 on Karpas-299 PBDR cells (Homo sapiens, UniProt P01589); test: CD25 antibody binding, flow cytometry; details: Karpas-299 PBDR vs wt, 1 hour on ice
T1 construct: endogenous in cells; host or cells: Karpas-299 acquired-resistant sublines (ADCR: selected with ADCT-301; PBDR: selected with SG3199)
T1 sequence (P01589 22-272): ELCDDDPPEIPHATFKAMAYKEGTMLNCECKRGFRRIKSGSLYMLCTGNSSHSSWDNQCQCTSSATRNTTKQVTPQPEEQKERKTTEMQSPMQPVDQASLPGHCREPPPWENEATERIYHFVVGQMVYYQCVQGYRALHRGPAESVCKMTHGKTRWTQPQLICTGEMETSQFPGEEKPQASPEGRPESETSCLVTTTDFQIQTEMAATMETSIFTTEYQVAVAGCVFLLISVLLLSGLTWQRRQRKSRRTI
Protocol: (§12) Karpas wt and acquired resistant cells were blocked at 4° C. for 30 mins before being incubated with a serial dilution series of HuMax-TAC mAb for 1 hour on ice. The cells were then washed and incubated with a F(ab′)2-Goat anti-Human IgG Fc Secondary Antibody conjugated to Alexa Fluor 488. After incubation for 1 hour on ice in the dark the cells were washed and run on a Fortessa X20 flow cytometer, and the mean fluorescence intensity (MFI) determined using the B530/30 laser/filter. […] In NCI-N87 cell lines there was a small decrease in MFI reached by the PBDr cell line, but the ADCr cell line was unchanged compared to the parental line (data not shown). However all cells continued to express high levels of antigen.

[6] = molecular target: T2, CD25 on Karpas-299 ADCR cells (Homo sapiens, UniProt P01589); test: CD25 antibody binding, flow cytometry; details: Karpas-299 ADCR vs wt, 1 hour on ice
T2 construct: endogenous in cells; host or cells: Karpas-299 acquired-resistant sublines (ADCR: selected with ADCT-301; PBDR: selected with SG3199)
T2 sequence (P01589 22-272): T1 sequence (P01589 22-272)
Protocol: as §12

[7] = Homo sapiens, NCI-N87, 144 h, read-out: IC50 pM
[8] = Homo sapiens, KARPAS-299, read-out: IC50 nM

CN(C)C(=O)CCSC(SCCC(=O)[O-])c1cccc(/C=C/c2ccc3ccc(Cl)cc3n2)c1.[Na+] (stereo not drawn) [MK-571]
reversal of acquired resistance to ADCT-301 (Karpas-299 PBDr cells; Karpas PBDr, 50 μM MK-571, 96-hour continuous exposure to ADCT-301): partially reverse the resistance | re-sensitisation to ADCT-301 treatment (Karpas-299 PBDr cells; Karpas-299 PBDr): dramatic re-sensitisation | reversal of acquired resistance to ADCT-301 (Karpas-299 ADCr cells; Karpas ADCr, 50 μM MK-571, 96-hour continuous exposure to ADCT-301): partially reverse the resistance | re-sensitisation to ADCT-301 treatment (Karpas-299 ADCr cells; Karpas-299 ADCr): dramatic re-sensitisation | response to ADCT-502 (NCI-N87 PBDr cells): restored to the level of the parental cell line | response to ADCT-502 (NCI-N87 ADCr cells): restored to the level of the parental cell line

N[C@@H](Cc1ccc(N(CCCl)CCCl)cc1)C(=O)O [melphalan]
cross-resistance (MTS growth inhibition compared to the parental cell line) [1]: decrease in growth inhibition | cross-resistance (MTS growth inhibition compared to the parental cell line) [2]: decrease in growth inhibition | cross-resistance (MTS cytotoxic sensitivity compared to wt cells) ([3]; Karpas ADCr vs wt/parental): No cross-resistance | cross-resistance (MTS cytotoxic sensitivity compared to wt cells) ([4]; Karpas PBDr vs wt/parental): No cross-resistance

COc1cccc2c1C(=O)c1c(O)c3c(c(O)c1C2=O)C[C@@](O)(C(=O)CO)C[C@@H]3O[C@H]1C[C@H](N)[C@H](O)[C@H](C)O1 [doxorubicin]
cross-resistance (MTS growth inhibition compared to the parental cell line) [1]: decrease in growth inhibition | cross-resistance (MTS growth inhibition compared to the parental cell line) [2]: decrease in growth inhibition | cross-resistance (MTS cytotoxic sensitivity compared to wt cells) [3]: No cross-resistance | cross-resistance (MTS cytotoxic sensitivity compared to wt cells) [4]: No cross-resistance

C=C1C[C@H]2C=Nc3cc(OCCCOc4cc5c(cc4OC)C(=O)N4CC(=C)C[C@H]4C=N5)c(OC)cc3C(=O)N2C1 [SG2000]
IC50 [1, 7]: 483 pM | fold resistance compared to wildtype ([1]; NCI-N87 ADCr vs NCI-N87 wt IC50): 7.5 fold | IC50 [2, 7]: 493 pM | fold resistance compared to wildtype ([2]; NCI-N87 PBDr vs NCI-N87 wt IC50): 7.7 fold | IC50 [3, 8]: 2.8 nM | fold resistance compared to wildtype ([3]; Karpas ADCr vs Karpas wt IC50): 3.1 fold | IC50 [4, 8]: 4.7 nM | fold resistance compared to wildtype ([4]; Karpas PBDr vs Karpas wt IC50): 5.2 fold | IC50 (Karpas-299 wt cells): 0.9 nM | IC50 (NCI-N87 wt cells): 64 pM

CC[C@H](C)C(=O)O[C@H]1C[C@@H](C)C=C2C=C[C@H](C)[C@H](CC[C@@H]3C[C@@H](O)CC(=O)O3)[C@H]21 [Lovastatin]
reversal of resistance by SLCO2B1 inhibitor (Karpas-299 PBDr cells; Karpas-299 PBDr, 10 nM Lovastatin with ADCT-301): failed to reverse the resistance | reversal of resistance by SLCO2B1 inhibitor (Karpas-299 ADCr cells; Karpas-299 ADCr, 10 nM Lovastatin with ADCT-301): failed to reverse the resistance | reversal of resistance by SLCO2B1 inhibitor (NCI-N87 PBDr cells; 5 μM Lovastatin with ADCT-502): failed to reverse the resistance | reversal of resistance by SLCO2B1 inhibitor (NCI-N87 ADCr cells; 5 μM Lovastatin with ADCT-502): failed to reverse the resistance

HuMax-TAC: fully human monoclonal IgG1,K antibody, VH SEQ ID NO. 1 and VL SEQ ID NO. 2; binds CD25
MFI of antibody binding compared to wildtype [5]: identical to wildtype cells | peak MFI of antibody binding compared to wildtype [6]: small decrease in peak MFI

COc1ccc2c3c([nH]c2c1)[C@H](C=C(C)C)N1C(=O)[C@@H]2CCCN2C(=O)[C@@H]1C3 [FTC, Fumitremorgin C]
re-sensitisation to ADCT-301 treatment (Karpas-299 PBDr cells; Karpas-299 PBDr): dramatic re-sensitisation | re-sensitisation to ADCT-301 treatment (Karpas-299 ADCr cells; Karpas-299 ADCr): dramatic re-sensitisation | response to ADCT-502 (NCI-N87 PBDr cells): restored to the level of the parental cell line | response to ADCT-502 (NCI-N87 ADCr cells): restored to the level of the parental cell line

N.N.[Cl][Pt][Cl] [cisplatin]
cross-resistance (MTS growth inhibition compared to the parental cell line) [1]: decrease in growth inhibition | cross-resistance (MTS growth inhibition compared to the parental cell line) [2]: decrease in growth inhibition
